# Experimental data reported in patent US9987321B2, “Use of flaxseed and flaxseed derivatives for treatment of neurological disorders and viral diseases” (The Trustees of the University of Pennsylvania, priority 2012, dated 2018).
# Experiments:
# [1] = Reducing power antioxidant assay; conditions: compared to SDG
# Procedure: The antioxidant activity SDG was determined by assessing its reducing power, an activity related to its ability to reduce an oxidized atom or molecule and compared with that of the natural antioxidants ascorbic acid and alpha-tocopherol (Panel A).
# [2] = test system: primary rat cortical neurons; assay: MAP2 cell-based ELISA of neuronal death and damage after ART compounds
# Procedure: (§1) Relative neuronal damage as indicated by MAP2 cell-based ELISA in neurons treated with the indicated concentrations of ART compounds, ritonavir (RIT), Saquinavir (Sag), and Zidovudine (AZT). Cells were treated for 72 hours with ritonavir (10 μM or 25 μM), ritonavir (10 μM)+Saquinivir (1 μM), AZT (25 μM)+ritonavir+Saquinavir. One hour before and two hours after cART drug treatment, half of the wells of a 96 well plate of neuroglial cultures were also treated with secoisolariciresinol diglucoside (SDG) (25 μM, 50 μM, or 100 μM) where indicated. 72 hours later, a MAP2 cell-based ELISA assay was used to quantify neuronal death and damage. Untreated cultures in addition to vehicle (0.08% DMSO) treated cultures with and without SDG were used as controls. The value for untreated cultures was set to 100%, and SDG and cART treated bands are expressed as a percent change from untreated.
# as §1, with “Cells” for “Relative neuronal damage as indicated by MAP2 cell-based ELISA in neurons treated with the indicated concentrations of ART compounds, ritonavir (RIT), Saquinavir (Sag), and Zidovudine (AZT). Cells”, “SDG” for “secoisolariciresinol diglucoside (SDG)”, “μM).” for “μM) where indicated.”
# HIV-1 jago [3] = assay: HIV replication in monocyte-derived macrophages (RT activity, p24); assay type: cell-based; conditions: for viral replication as indicated by RT activity / viral replication as indicated by p24 concentrations: primary human MDMs, 9 days post-infection, ritonavir 0.1 μM, SDG 50 μM
# Procedure: Primary human MDMs were infected with an HIV isolated from the CSF of a patient with confirmed HAND yielding robust reverse transcriptase activity (A) and p24 concentrations (B) after 9 days post-infection. […] Results have been confirmed in 2 distinct donors, 1 donor is shown. Three technical replicates are analyzed for RT assays (n=3, * p<0.0001).
# (§2) PBMCs can be prepared from laboratory donors. PBMCs are activated with […] phytohemagglutinin for 3 days, and infected with HIV-1 jago, a strain of HIV1 isolated from the CSF of a patient with HAD. On the day of infection, cultures is treated with SDG over a range of doses (0.1, 1, 10, 100 μM SDG), vehicle, or left untreated. Viral replication is assessed by p24 ELISA at 3, 6, 9, 12 and 15 days post-infection. Cell viability of infected PBMCs can be monitored by trypan blue exclusion and p24 levels are normalized to the number of viable cells. The experiment is repeated in 3 donors. MDMs can be prepared as described previously and infected with HIV-1 jago. On the day of inoculation with HIV-1 jago cultures can be treated with 0.1, 1, 10 and 100 μM SDG, vehicle or left untreated. Viral replication is assessed on days 3, 6, 9, 12, and 15 by p24 ELISA. Cell viability is determined by trypan blue exclusion and p24 levels is normalized to the number of viable cells. The experiment is replicated in 3 donors.
# To assess this effect, primary peripheral blood monocytes were harvested from healthy donors and differentiated them into macrophages in vitro. Monocytes were infected with the primary HIV isolate, jago. One day after infection, macrophages were treated with 25 μM or 50 μM SDG, the antiretroviral compound ritonavir (0.1 μM RIT), SDG and ritonavir together, the ritonavir vehicle, DMSO, or with no additional treatment. Supernatant from these macrophages was harvested 3, 6, 9, 12, and 15 days post infection and assayed for HIV reverse transcriptase activity (FIG. 5A, bar graph and FIG. 5B, Line graph).
# cortical rat neurons = assay: Neurotoxicity and oxidative stress (MAP2, DHE) from HIV-infected macrophage supernatants; assay type: cell-based
# Procedure: Neurons (green) were pre-treated with 50 μM SDG 1 hour prior to exposure to HIV-infected macrophage supernatants (HIVMDM) at dilutions of 1:40 and 1:80. In the absence of SDG, there is marked reduction in MAP2 immunostaining (green) indicating neuronal damage and death (A). Labeling with dihydroethidium (red) indicates the presence of oxidative stress, which is apparent in HIVMDM treated cultures. Nuclei are labeled blue by DAPI. […] MAP2 levels are quantified in top graph (# p<0.01 compared to UT, * p<0.05 compared to respective HIV MDM). Oxidative stress (red-DHE) is quantified in bottom graph (# p<0.001, compared to HIVMDM1:40, p<0.05, compared to HIVMDM1:80, $ p<0.01 compared with UT.
# Primary rat neuroglial cultures (FIG. 10, Panel A) and primary rat neuronal cultures (FIG. 10, Panel B) were treated with Supernatants from HIV-Infected macrophages (Jago) or Mock-infected macrophages (Mock) for 24 hours in the presence or absence of 25 or 50 μM SDG given 60 minutes prior to addition of the HIVMDM. Prior to fixation, cells were incubated with Dihydroethidium (DHE-red) for 30 minutes. Following fixation cells were stained for the neuronal specific marker MAP2 (green) and DAPI (blue). Representative images for each treatment are shown. DHE Fluorescence intensity was quantified from 6 fields for 3 slides per treatment, averaged, and normalized to the area of DAPI. Graphs of the average DHE staining intensity/DAPI area are plotted for each treatment group. The p values were generated using student's two-tailed t-test for equal variance. Bars on graphs represent median values of quantification by ImageJ algorithm. *P<0.05 vs Untreated (UT)-control group and Mock-control group; #P<0.05 vs Jago 1:40 treatment group. The results were obtained from at least three independent experiments.
# rat neuronal cultures = assay: MTT viability, indirect treatment (media from SDG-treated macrophages); assay type: cell-based; conditions: media from HIV-1 or Mock infected macrophages treated with SDG, 24 hours
# Procedure: We performed a MTT (3-(4,5-dimethylthiazol-2-yl)-2,5-diphenyltetrazolium bromide) assay to measure the viability of cells through the production of insoluble formazan. […]. In these indirect studies media from HIV-1 infected or Mock infected macrophages treated with SDG was applied to neuronal cultures for 24 hours. Afterward cell viability was determined by the MTT assay which […] and is an indicator of mitochondrial activity. […] This study is a clear indicator of the non-neurotoxic effects of SDG in vitro.
# HIV-1 jago [4] = assay: HIV replication in PBMCs (p24 ELISA); assay type: cell-based; conditions: dose dependent manner; 0.1, 1, 10, 100 μM SDG
# Procedure: as §2
# Nrf2/ARE = Nrf2/ARE activation in non-neuronal cell types; assay type: cell-based; conditions: lung epithelial, endothelial and fibroblasts
# [5] = test system: rat cortical neuroglial cultures; assay: MTT viability, direct SDG treatment; assay type: cell-based; conditions: 24 hours with SDG
# Procedure: In order to assess the effects on SDG in terms of mitochondrial respiration as an indicator of viability, an MTT assay was performed with rat cortical neuroglial cultures that were treated for 24 hours with SDG.
# [6] = SDG by oral gavage; cited from earlier work
# [7] = test system: nrf2-regulated protective enzymes; assay: qRT-PCR of antioxidant enzyme gene expression in brain tissues after oral SDG; assay type: in vivo, mice
# Procedure: Indeed, the 1.0 mg dose was associated with a near 2-fold boost of hemeoxygenase 1 expression (HO-1) and quinone oxidoreductase 1 (NQO-1) expression in brain tissues (FIG. 14, Panel B).
# [8] = at least 500 mg SDG/day for approximately 8 weeks; cited from earlier work
# [9] = DPPH free radical scavenging activity; conditions: compared to ascorbic acid and alpha-tocopherol
# Nrf2 = assay: Endogenous antioxidant response expression by qRT-PCR and immunoblot; assay type: cell-based; conditions: primary rat cortical neurons, SDG 50 μM, 2 or 48 hours
# Procedure: Specifically, protein and RNA from primary rat cortical neurons treated with SDG at 50 μM or left untreated for 2 or 48 hours were analyzed for changes in expression of the endogenous antioxidant response by qRT-PCR and immunoblot.
# Protein and RNA from primary rat cortical neurons treated with SDG at 50 μM or left untreated for 2 or 48 hours were analyzed for changes in expression of the endogenous antioxidant response by qRT-PCR and immunoblot.
# [10] = test system: brain derived neurotrophic factor (BDNF); conditions: SDG by oral gavage; cited from earlier work
# CCR5 = assay: Western blot of CCR5 expression on MDM; assay type: cell-based; conditions: SDG for 0 and 6 hours, time-dependent
# Procedure: (§3) The objective of this study was to elucidate the modulatory effects of flaxseed lignans on macrophage expression of coreceptors through western blotting.
# Expression of HIV co-receptor CCR5 on macrophage derived monocytes treated with SDG was evaluated. Following the same treatment protocol, MDM were treated with SDG for 0 and 6 hours.
# CXCR4 = assay: Western blot of CXCR4 expression on MDM; assay type: cell-based
# Procedure: as §3
# Expression of HIV coreceptor CXCR4 on macrophage derived monocytes treated with SDG was evaluated. Following the same treatment protocol, MDM were treated with SDG for 0 and 6 hours. […] 25 μM to the 25 μM SDG treatment.
# [11] = 50 μM SDG 1 hour prior to HIVMDM 1:40 and 1:80
# [12] = 1.0 mg SDG oral gavage once daily for 4 days, 4 hours post final feeding
smiles,measurement,setting,value
"Cc1c(C)c2c(c(C)c1O)CC[C@@](C)(CCC[C@H](C)CCC[C@H](C)CCCC(C)C)O2 [A-toc, alpha-tocopherol]","concentration needed for half-maximal response (EC50) in reducing power, relative to SDG",[1],~3 fold
"CC(C)(C)NC(=O)[C@@H]1C[C@@H]2CCCC[C@@H]2CN1C[C@@H](O)[C@H](Cc1ccccc1)NC(=O)[C@H](CC(N)=O)NC(=O)c1ccc2ccccc2n1 [saquinavir, reference compound]",neuronal damage as indicated by loss of MAP2 staining,"[2]; ART compounds alone and in combinations, 72 hours",significant neuronal damage
"CC(C)c1nc(CN(C)C(=O)N[C@H](C(=O)N[C@@H](Cc2ccccc2)C[C@H](O)[C@H](Cc2ccccc2)NC(=O)OCc2cncs2)C(C)C)cs1 [ritonavir, reference compound]",viral replication as indicated by RT activity,HIV-1 jago [3],attenuated viral replication
same,viral replication as indicated by p24 concentrations,HIV-1 jago [3],attenuated viral replication
"COc1cc(C[C@@H](CO[C@@H]2O[C@H](CO)[C@@H](O)[C@H](O)[C@H]2O)[C@H](CO[C@@H]2O[C@H](CO)[C@@H](O)[C@H](O)[C@H]2O)Cc2ccc(O)c(OC)c2)ccc1O [SDG, secoisolariciresinol diglucoside]",neuron loss (MAP2 immunostaining),cortical rat neurons; [11],protected against neuron loss
same,oxidative stress by DHE,cortical rat neurons; [11],reduced accumulation of oxidative stress
same,protection from HIV-stimulated macrophage-induced neurotoxicity,"cortical rat neurons; 25 or 50 μM SDG 60 minutes prior to HIVMDM, 24 hours, presence or absence of glia",protects neurons
same,DHE staining (free radical production) in HIV-Jago-treated neurons,cortical rat neurons; presence and absence of glia,reduced DHE staining
same,"neuronal cell viability (MTT), indirect treatment",rat neuronal cultures,no change in neuronal cell viability
same,HIV replication in PBMCs,HIV-1 jago [4],attenuates HIV replication
same,attenuation of neuronal damage in response to ART compounds,[2]; 25 μM SDG 1 hour prior to ART compounds alone or in combination,significantly attenuated neuronal damage
same,reduction of ART-induced neuronal damage by combination therapy,[2]; SDG at 25 and 50 μM,reduced ART-induced neuronal damage
same,"activation of Nrf2/ARE, inducing NQO1 and HO1",Nrf2/ARE,activates the Nrf2/ARE
same,"neuronal cell viability (MTT), direct treatment",[5],no change in neuronal cell viability
same,chronic stress as measured by immobility time induced by tail suspension stress,[6],decreased chronic stress
same,hemeoxygenase 1 (HO-1) expression in brain tissues,[7]; [12],~2 fold
same,quinone oxidoreductase 1 (NQO-1) expression in brain tissues,[7]; [12],~2 fold
same,crossing of the blood-brain barrier,[7]; SDG given orally to mice,crosses the blood-brain barrier
same,effect on cardiovascular risk factors in humans,[8],positive effect
same,DPPH free radical scavenging activity,[9],far superior antioxidant activity
same,"induction of Nrf2 and its targets HO1, NQO1, GST1",Nrf2,"induced Nrf2 in neurons, as well as its prominent targets: HO1, NQO1, and GST1"
same,cortex levels of brain derived neurotrophic factor (BDNF),[10],increase
same,effect of SDG on ritonavir inhibition of HIV replication (reverse transcriptase activity),"HIV-1 jago [3]; 25 or 50 μM SDG with 0.1 μM ritonavir, 3-15 days post infection",did not block the ability of ritonavir to inhibit HIV replication
same,"HIV replication (reverse transcriptase activity), SDG without ritonavir","HIV-1 jago [3]; 25 or 50 μM SDG, 3-15 days post infection",blocked HIV replication
same,viral replication in HIV-infected macrophages compared with ritonavir,HIV-1 jago [3]; FIG. 2,"reduced viral replication to levels akin to the HIV protease inhibitor, ritonavir"
same,HIV replication in MDMs,"HIV-1 jago [3]; dose dependent manner, 0.1, 1, 10, 100 μM SDG",attenuates HIV replication
same,viral replication as indicated by RT activity,HIV-1 jago [3],attenuated viral replication
same,viral replication as indicated by p24 concentrations,HIV-1 jago [3],attenuated viral replication
same,HIV co-receptor CCR5 expression on MDM,CCR5,significant decrease
same,"HIV coreceptor CXCR4 expression on MDM, dose dependence","CXCR4; 12 hour time point, 6. 25 μM to 25 μM SDG",dose-dependent decrease
same,HIV coreceptor CXCR4 expression on MDM,"CXCR4; between the 0 and 6 hour time points, time-dependent",significant decrease
"O=C1O[C@H]([C@@H](O)CO)C(O)=C1O [AA, ascorbic acid]","concentration needed for half-maximal response (EC50) in reducing power, relative to SDG",[1],~3 fold
